Measurements: patent US20210329894A1, “METHOD FOR PREPARING ALZHEIMER'S DISEASE (AD) ANIMAL MODEL” (Shanxi Medical University, priority 2020, published 2021)

Key:
Assay type in all cases: in vivo
[1] = tested on: ApoE4 transgenic mice (KI); experiment: Morris water maze (place navigation test and space exploration experiment); conditions: 4 mmol/L Al(mal)3 i.p. 10 ml/kg
Method: (§1) Example 1 Establishment of aluminum-exposed ApoE4 transgenic mouse model 16 healthy male ApoE4 transgenic mice (KI), 16 ApoE knockout mice (KO) and 16 wild-type mice (C57BL/6J, WT) aged 4 to 5 weeks were selected, with similar activities and weights of 18 g to 20 g. They were randomly divided into control group (NS) and aluminum-exposed group (Al), with 8 animals in each group.
(§2) An 8 mmol/L aluminum chloride solution and a 24 mmol/L maltol solution were prepared with sterilized triple distilled water, then the two solutions were mixed in a volume ratio of 1:1 to obtain a Al(mal)3 solution with a final concentration of 4 mmol/L, and pH was adjusted to 7.4 with 10% NaOH. The animals in the aluminum-exposed group were intraperitoneally injected with the Al(mal)3 at a volume of 10 ml/kg, with aluminum exposure for 60 days, and interval time of 2 days for every 5 days; and the control group was given the same volume of normal saline (NS).
This example was different from Example 1 in that a Morris water maze experiment and a place navigation test were added. […]

[2] = tested on: ApoE4 transgenic mice (KI); experiment: new object recognition test; conditions: 4 mmol/L Al(mal)3 i.p. 10 ml/kg, 60 days, testing session T2, 1 h after training, compared among all groups
Method: as §1
(§3) An 8 mmol/L aluminum chloride solution and a 24 mmol/L maltol solution were prepared with sterilized triple distilled water, then the two solutions were mixed in a volume ratio of 1:1 to obtain a Al(mal)3 solution with a final concentration of 4 mmol/L, and pH was adjusted to 7.4 with 10% NaOH. […]
In this example, a new object recognition test was conducted on the basis of the above examples. […] The time periods for a mouse to explore the two areas were both recorded by a recording instrument, and the recording time was set to 10 min, after which the mouse was taken out and put back in the original cage. […] Testing session (T2): 1 h after the training session ended, one of the cubes was replaced with a cone, the mouse was placed in exactly the same way as the training session, and the time periods for the mouse to explore two different objects were recorded as a new object recognition time (New, N) and a familiar object time (Familiar, F). […]

[3] = determination of aluminum content in the brain (ICP-MS); conditions: each aluminum-exposed group (KI, KO, WT mice), 4 mmol/L Al(mal)3 i.p. 10 ml/kg, 60 days; vs control group
Method: as §1, §3
This example was different from the above Example in that the determination of aluminum content in the brain was added. 60 mg of mouse brain tissue was weighed and put into a microwave digestion tube, 3 ml of nitric acid (guaranteed reagent) was added, and the tube was put in a microwave digestion system for microwave digestion according to a program; after digestion, the solution was filtered with a 0.22 μm microporous filter, and a resulting filtrate was collected in a 5 ml deionized centrifuge tube and then diluted to […] with nitric acid (guaranteed reagent); and the sample was diluted 25 times with Wahaha water, and aluminum content was detected with ICP-MS.

Aβ42 = experiment: determination of Aβ42 content in the hippocampus (Elisa kit); conditions: KI mice, 4 mmol/L Al(mal)3 i.p. 10 ml/kg, 60 days
Method: as §1, §2
This example was different from the above examples in that the determination of Aβ42 content was added. The hippocampus tissue of a mouse was stripped, and crushed with an ultrasonic processor; the hippocampal tissue protein was extracted with a tissue protein extraction reagent; and the Aβ42 content in the hippocampus was detected with an Aβ42 protein Elisa kit.

tau-5 = experiment: expression level of tau-5 in the hippocampus (Western blot); conditions: KI mice, 4 mmol/L Al(mal)3 i.p. 10 ml/kg, 60 days; relative expression by Western blot
Method: as §1, §2
(§4) This example was different from the above examples in that the determination of expression levels of Tau proteins in the brain was added. The tau-5 and pThr181 levels in animals of each group were determined by Western blot. […] The gray value was analyzed with Quantity one software, and the relative expression level of protein was calculated.

pThr181 = experiment: expression level of pThr181 in the hippocampus (Western blot); conditions: KI mice, 4 mmol/L Al(mal)3 i.p. 10 ml/kg, 60 days; relative expression by Western blot
Method: as §1, §2, §4

Cc1occc(=O)c1[O][Al]([O]c1c(C)occc1=O)[O]c1c(C)occc1=O [Al, Al(mal)3]
escape latency (time to find the platform) ([1]; 60 days exposure, days 4 and 5 of training, vs control group): significantly longer
number of crossing the platform ([1]; 60 days, space exploration experiment, 60 s, compared among all groups): least number of crossing the platform
discrimination index (DI) [2]: lowest DI
brain aluminum content [3]: significantly higher
Aβ42 content in the hippocampus (Aβ42): significantly increased
expression level of tau-5 in the hippocampus (tau-5): significantly increased
expression level of pThr181 in the hippocampus (pThr181): significantly increased
